Test results taken from patent US20260308179A1, “NOVEL CRYSTALLINE FORM OF RISDIPLAM AND PROCESS FOR PREPARATION THEREOF” (HARMAN FINOCHEM LIMITED, priority 2023, published 2026).
≈ marks a conversion by molar mass, not a printed value. Where two headings read alike, the source gives them in different places. One block for each compound: values may come before it.

How the values were obtained:
[1] = Risdiplam solubility data; format: physicochemical
[2] = Storage stability of crystalline Form H by IR spectrum; format: physicochemical
Protocol: In yet another aspect, the crystalline Form H of Risdiplam is characterized by the IR spectrum at 834 cm^−1, 880 cm^−1, 926 cm^−1, 1210 cm^−1, 1227 cm^−1, 1674 cm^−1, 2824 cm^−1, 3283 cm^−1; as illustrated in FIGS. 2A and 2B. The IR spectrum of Risdiplam Form H was conducted after 6 months of storage.
In yet another embodiment, the crystalline Form H of Risdiplam is characterized by the IR spectrum at 834 cm^−1, 880 cm^−1, 926 cm^−1, 1210 cm^−1, 1227 cm^−1, 1674 cm^−1, 2824 cm^−1, 3283 cm^−1 as illustrated in FIGS. 2A and 2B. The IR spectrum of Risdiplam Form H illustrated in FIG. 2B was conducted after 6 months of storage.

solubility ([1]; ethanol, organic solvent or mixture, solvent: ethanol, read-out: Solubility in ethanol): 1.3 mg/mL (≈ 3240 µM)
solubility ([1]; water, solvent: water, read-out: Solubility in water): 0.003 mg/mL (≈ 7.47 µM)
Structure (SMILES): Cc1cn2nc(-c3cc(=O)n4cc(N5CCNC6(CC6)C5)ccc4n3)cc(C)c2n1 [011/DS-C/V/118/032, 7-(4,7-Diazaspiro[2,5]octan-7-yl)-2-(2,8-dimethylimidazo[1,2-b]pyridazin-6-yl)-pyrido[1,2-a]pyrimidin-4-one]

Solubility in ethanol ([1]; solvent: ethanol): <1 mg/mL
Solubility in water ([1]; solvent: water): <0.1 mg/mL
Structure (SMILES): Cc1cn2nc(-c3cc(=O)n4cc(N5CCNC6(CC6)C5)ccc4n3)cc(C)c2n1 [STD]

Solubility in ethanol ([1]; solvent: ethanol, listed as 011/DS-C/IV/118/048): 1.4 mg/mL (≈ 3490 µM)
Solubility in water ([1]; solvent: water, listed as 011/DS-C/IV/118/048): 0.006 mg/mL (≈ 14.9 µM)
stability period ([2]; illustrated by IR spectrum in FIG. 2): stable up to a period of 6 months
Structure (SMILES): Cc1cn2nc(-c3cc(=O)n4cc(N5CCNC6(CC6)C5)ccc4n3)cc(C)c2n1 [crystalline Form H of Risdiplam, 7-(4,7-diazaspiro[2.5]octan-7-yl)-2-(2,8-dimethylimidazo[1,2-b]pyridazin-6-yl)pyrido-4H-[1,2-a]pyrimidin-4-one]
change in the IR spectrum after storage (stability) ([2]; after 6 months of storage, IR spectrum, FIG. 2A and 2B): No substantial change in the IR spectrum was observed
